Laboratory results as given in PMC7071059, “Targeting Receptor Tyrosine Kinase VEGFR-2 in Hepatocellular Cancer: Rational Design, Synthesis and Biological Evaluation of 1,2-Disubstituted Benzimidazoles” (Molecules, 2020).

Key:
MCF7 = test: NCI 60 one dose (10 μM) anticancer assay; type: cell-based; conditions: Homo sapiens, 10 µM one dose, Breast Cancer, read-out: Growth Inhibition % MCF7
Method: (§1) Some of the synthesized compounds were selected by the NCI, Bethesda, MD, USA for evaluation of their anticancer activity. An in vitro one dose (10 μM) anticancer assay was conducted on a full NCI 60-cell line panel derived from 9 different cancer types. Table 2 presents the percent of growth inhibition of some cell lines. […] K-562 and MOLT-4 from leukemia, NCI-H522 from non-small cell lung cancer, HCT-116 from colon cancer, SK-MEL-5 and UACC-62 from melanoma, UO-31 from renal cancer, PC-3 from prostate cancer and HS 578T and T-47D from breast cancer are the most sensitive cell lines to the tested compounds. No growth inhibition was observed from the selected compounds against COLO205, HCC-2998, MALME-3M, SK-MEL-28, DU-145 and BT-549 cell lines. […] Against UO-31 from renal cancer and PC-3 from prostate cancer, it inhibited the growth of 44% and 58% of the cancer cells, respectively.

PRMI-8226 = test: NCI 60 one dose (10 μM) anticancer assay; type: cell-based; conditions: 10 µM one dose; Leukemia; read-out: Growth Inhibition % PRMI-8226
Method: as §1

BT-549 = test: NCI 60 one dose (10 μM) anticancer assay; type: cell-based; conditions: Homo sapiens, 10 µM one dose, Breast Cancer, read-out: Growth Inhibition % BT-549
Method: as §1

NCI-H322M = test: NCI 60 one dose (10 μM) anticancer assay; type: cell-based; conditions: Homo sapiens, 10 µM one dose, Non-small cell lung Cancer, read-out: Growth Inhibition % NCI-H322M
Method: as §1

HCT-116 = test: NCI 60 one dose (10 μM) anticancer assay; type: cell-based; conditions: Homo sapiens, 10 µM one dose, Colon Cancer, read-out: Growth Inhibition % HCT-116
Method: as §1

SK-MEL-5 = test: NCI 60 one dose (10 μM) anticancer assay; type: cell-based; conditions: Homo sapiens, 10 µM one dose, Melanoma, read-out: Growth Inhibition % SK-MEL-5
Method: as §1

A498 = test: NCI 60 one dose (10 μM) anticancer assay; type: cell-based; conditions: Homo sapiens, 10 µM one dose, Renal Cancer, read-out: Growth Inhibition % A498
Method: as §1

UACC-62 = test: NCI 60 one dose (10 μM) anticancer assay; type: cell-based; conditions: Homo sapiens, 10 µM one dose, Melanoma, read-out: Growth Inhibition % UACC-62
Method: as §1

HT29 = test: NCI 60 one dose (10 μM) anticancer assay; type: cell-based; conditions: Homo sapiens, HT-29; 10 µM one dose; Colon Cancer; read-out: Growth Inhibition % HT29
Method: as §1

T-47D = test: NCI 60 one dose (10 μM) anticancer assay; type: cell-based; conditions: Homo sapiens, T47D; 10 µM one dose; Breast Cancer; read-out: Growth Inhibition % T-47D
Method: as §1

MOLT-4 = test: NCI 60 one dose (10 μM) anticancer assay; type: cell-based; conditions: Homo sapiens, 10 µM one dose, Leukemia, read-out: Growth Inhibition % MOLT-4
Method: as §1

CCRF-CEM = test: NCI 60 one dose (10 μM) anticancer assay; type: cell-based; conditions: Homo sapiens, 10 µM one dose, Leukemia, read-out: Growth Inhibition % CCRF-CEM
Method: as §1

RXF 393 = test: NCI 60 one dose (10 μM) anticancer assay; type: cell-based; conditions: Homo sapiens, 10 µM one dose, Renal Cancer, read-out: Growth Inhibition % RXF 393
Method: as §1

CAK1-1 = test: NCI 60 one dose (10 μM) anticancer assay; type: cell-based; conditions: 10 µM one dose; Renal Cancer; read-out: Growth Inhibition % CAK1-1
Method: as §1

HOP-92 = test: NCI 60 one dose (10 μM) anticancer assay; type: cell-based; conditions: Homo sapiens, 10 µM one dose, Non-small cell lung Cancer, read-out: Growth Inhibition % HOP-92
Method: as §1

OVCAR-5 = test: NCI 60 one dose (10 μM) anticancer assay; type: cell-based; conditions: Homo sapiens, 10 µM one dose, Ovarian Cancer, read-out: Growth Inhibition % OVCAR-5
Method: as §1

NCI-H460 = test: NCI 60 one dose (10 μM) anticancer assay; type: cell-based; conditions: Homo sapiens, 10 µM one dose, Non-small cell lung Cancer, read-out: Growth Inhibition % NCI-H460
Method: as §1

M14 = test: NCI 60 one dose (10 μM) anticancer assay; type: cell-based; conditions: Homo sapiens, 10 µM one dose, Melanoma, read-out: Growth Inhibition % M14
Method: as §1

VEGFR-2 = VEGFR-2 (Homo sapiens, UniProt P35968); test: Biochemical kinase assay (Kinase-Glo Plus luminescence)
Method: This assay was carried out using the VEGFR-2 kinase enzyme system or FGFR-1 kinase enzyme system and Kinase-Glo Plus luminescence kinase (Promega) kits according to the manufacturers´ protocols. This assay evaluated the activity of kinase by measuring the amount of ATP remaining in solution after a kinase reaction. The luminescent signal from the assay was related to the quantity of ATP available, which was inversely proportional to the amount of kinase activity. […] Subsequently, serial dilutions were carried out, and 5 µL of the dilution was added to a 50 µL reaction. The enzymatic reactions were performed at 30 °C for 45 minutes. The 50 µL reaction mixture contained 40 mM Tris, pH 7.4, 10 mM MgCl2, 0.1 mg/mL BSA, 1 mM DTT, 0.2 mg/ml Poly (Glu, Tyr) substrate, 10 μM ATP and protein. After the enzymatic reaction, 50 µL of Kinase-Glo Plus Luminescence kinase assay solution was added to each reaction, and the plates were incubated for 15 minutes at room temperature. The luminescence signal was measured using a Tecan–spark multimode microplate reader. The difference between luminescence intensities in the absence of Kinase (Lut) and in the presence of Kinase (Luc) was defined as 100% activity (Lut − Luc). Using a luminescence signal (Lu) in the presence of the compound, % activity was calculated as: % activity = {(Lut − Lu)/(Lut − Luc)}×100%, where Lu = the luminescence intensity in the presence of the compound.

HSF cell line = test: In vitro growth inhibitory activity on normal human skin fibroblast, SRB assay; type: cell-based; conditions: for IC50: Homo sapiens, HSF, SRB assay, 48 h, normal cell line, mean of three independent experiments
Method: The anticancer activity of the synthesized compounds was measured in vitro using the Sulfo-Rhodamine-B (SRB) assay according to Skehan et al.. Briefly, HepG2 or HSF cells (obtained from Nawah Scientific) were inoculated in 96-well microtiter plates (10^4 cells/ well) for 24 h before treatment with the tested compounds to allow attachment of cells to the walls of the plates. Test compounds were dissolved in DMSO immediately before use and diluted to the appropriate volume just before addition to the cell culture. […] Three wells were prepared for each individual dose. Monolayer cells were incubated with the compounds for 48 h at 37 °C and in an atmosphere of 5% CO2. After 48 h, cells were fixed, washed and stained for 30 min with 0.4% (w/v) SRB dissolved in 1% acetic acid. Unbound dye was removed by four washes with 1% acetic acid and attached stain was recovered with Tris-EDTA buffer. Color intensity was measured in an ELISA reader. The relation between surviving fraction and drug concentration was plotted to get the survival curve.

VEGFR-2, sequence (P35968 20-1356): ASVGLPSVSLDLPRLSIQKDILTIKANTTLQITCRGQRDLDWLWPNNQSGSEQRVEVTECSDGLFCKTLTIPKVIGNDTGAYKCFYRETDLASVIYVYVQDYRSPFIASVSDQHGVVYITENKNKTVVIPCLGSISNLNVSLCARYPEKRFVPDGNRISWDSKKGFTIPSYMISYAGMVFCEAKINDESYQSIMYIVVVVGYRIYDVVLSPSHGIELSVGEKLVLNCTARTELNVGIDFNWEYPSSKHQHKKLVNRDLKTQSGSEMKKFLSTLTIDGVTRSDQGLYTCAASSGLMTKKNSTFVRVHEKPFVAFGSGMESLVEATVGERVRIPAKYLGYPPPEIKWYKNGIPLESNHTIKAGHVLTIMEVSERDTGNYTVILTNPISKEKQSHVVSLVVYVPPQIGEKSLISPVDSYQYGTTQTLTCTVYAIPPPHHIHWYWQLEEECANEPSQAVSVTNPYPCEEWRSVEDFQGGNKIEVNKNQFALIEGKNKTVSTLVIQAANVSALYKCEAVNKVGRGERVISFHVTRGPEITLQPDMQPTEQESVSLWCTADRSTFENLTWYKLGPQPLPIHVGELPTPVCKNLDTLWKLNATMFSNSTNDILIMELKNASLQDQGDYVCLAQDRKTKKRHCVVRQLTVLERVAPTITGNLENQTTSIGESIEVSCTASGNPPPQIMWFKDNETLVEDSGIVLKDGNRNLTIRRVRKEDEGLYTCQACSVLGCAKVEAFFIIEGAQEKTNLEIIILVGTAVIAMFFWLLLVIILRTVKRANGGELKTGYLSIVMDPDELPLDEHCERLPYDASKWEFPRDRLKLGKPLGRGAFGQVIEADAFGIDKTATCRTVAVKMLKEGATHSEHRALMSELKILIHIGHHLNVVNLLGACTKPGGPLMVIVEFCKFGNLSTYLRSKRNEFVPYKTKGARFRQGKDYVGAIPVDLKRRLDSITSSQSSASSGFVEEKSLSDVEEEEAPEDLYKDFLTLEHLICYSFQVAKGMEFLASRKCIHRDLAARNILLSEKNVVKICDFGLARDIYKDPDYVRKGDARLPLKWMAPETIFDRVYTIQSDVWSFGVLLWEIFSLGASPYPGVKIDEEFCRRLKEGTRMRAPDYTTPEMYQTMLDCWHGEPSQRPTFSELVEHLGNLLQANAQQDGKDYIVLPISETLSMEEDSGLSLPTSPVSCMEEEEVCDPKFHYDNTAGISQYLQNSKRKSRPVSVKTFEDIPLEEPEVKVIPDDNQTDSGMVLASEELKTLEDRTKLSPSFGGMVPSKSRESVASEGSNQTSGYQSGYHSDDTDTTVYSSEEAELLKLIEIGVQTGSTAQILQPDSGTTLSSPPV

Structure (SMILES)	inhibition at 10 µM (MCF7) [%]	inhibition at 10 µM (BT-549) [%]	inhibition at 10 µM (NCI-H322M) [%]	inhibition at 10 µM (HCT-116) [%]	inhibition at 10 µM (SK-MEL-5) [%]	inhibition at 10 µM (A498) [%]	inhibition at 10 µM (UACC-62) [%]	inhibition at 10 µM (HT29) [%]	inhibition at 10 µM (T-47D) [%]	inhibition at 10 µM (MOLT-4) [%]	inhibition at 10 µM (CCRF-CEM) [%]	inhibition at 10 µM (RXF 393) [%]	inhibition at 10 µM (CAK1-1) [%]	inhibition at 10 µM (HOP-92) [%]	inhibition at 10 µM (OVCAR-5) [%]	inhibition at 10 µM (NCI-H460) [%]	inhibition at 10 µM (M14) [%]	further results
C/C(=N\NC(=O)Cn1c(C(C)C)nc2ccccc21)c1ccccc1 [Compound 14a, (E)-2-(2-Isopropyl-1H-benzo[d]imidazol-1-yl)-N′-(1-phenylethylidene)acetohydrazide]	< 10	< 10	< 10	< 10	< 10	49	13	< 10	< 10	< 10	16	33	12	18	21	< 10	< 10	inhibition at 10 µM (PRMI-8226): < 10%
CC(C)c1nc2ccccc2n1CC(=O)N/N=C/c1cccc(OCc2ccccc2)c1 [Compound 17a, (E)-N′-(3-(Benzyloxy)benzylidene)-2-(2-isopropyl-1H-benzo[d]imidazol-1-yl)acetohydrazide]	< 10	28	< 10	66	50	17	41	< 10	32	50	41	< 10	< 10		< 10	< 10	16	IC50 (VEGFR-2): 110 ± 3 nM; IC50 (HSF cell line): 19.9 µM; selectivity to the HepG2 cell line over the normal HSF cell line (HSF cell line; from IC50 HSF vs IC50 HepG2): about ten-fold higher selectivity
Cc1ccc(-c2nc3ccccc3n2CC(=O)N/N=C/c2cccc(OCc3ccccc3)c2)o1 [Compound 17b, (E)-N′-(3-(Benzyloxy)benzylidene)-2-(2-(5-methylfuran-2-yl)-1H-benzo[d]imidazol-1-yl)acetohydrazide]	48	< 10	21	32	33	16	29	29	49	58	28	40	33	32	14	27	24	IC50 (VEGFR-2): 140 ± 4 nM; inhibition at 10 µM (PRMI-8226): 50%; IC50 (HSF cell line): 4.8 µM
CC(C)c1nc2ccccc2n1CC(=O)N/N=C/c1ccc(OCc2ccccc2)cc1 [Compound 17c, (E)-N′-(4-(Benzyloxy)benzylidene)-2-(2-isopropyl-1H-benzo[d]imidazol-1-yl)acetohydrazide]	< 10	< 10	< 10	18	< 10	< 10	26	< 10	24	25	< 10	< 10	15	< 10	< 10	< 10	< 10	
Cc1ccc(-c2nc3ccccc3n2CC(=O)N/N=C/c2ccc(OCc3ccccc3)cc2)o1 [Compound 17d, (E)-N′-(4-(Benzyloxy)benzylidene)-2-(2-(5-methylfuran-2-yl)-1H-benzo[d]imidazol-1-yl)acetohydrazide]	19	< 10	20	< 10	15	17	< 10	< 10	31	40	< 10	< 10	21		< 10	< 10	< 10	
COc1cc(/C=N/NC(=O)Cn2c(C(C)C)nc3ccccc32)ccc1OCc1ccccc1 [Compound 17e, (E)-N′-(4-(Benzyloxy)-3-methoxybenzylidene)-2-(2-isopropyl-1H-benzo[d]imidazol-1-yl)acetohydrazide]	< 10	< 10	< 10	< 10	17	22	22	< 10	27	22	< 10	< 10	< 10	< 10	< 10	< 10	< 10	
COc1cc(/C=N/NC(=O)Cn2c(-c3ccc(C)o3)nc3ccccc32)ccc1OCc1ccccc1 [Compound 17f, (E)-N′-(4-(Benzyloxy)-3-methoxybenzylidene)-2-(2-(5-methylfuran-2-yl)-1H-benzo[d]imidazol-1-yl)acetohydrazide]	24	< 10	< 10	28	23	21	22	< 10	31	50	19	< 10	17		< 10	< 10	< 10	
